Experimental findings from a melting point compilation (Tetko et al.; mined from patent text by program, amines drawn as free bases though some values may be those of a salt) are described below.

Where only a bound is given, the exact number is not on record here.

By melting point is commonly meant the temperature of the solid-liquid transition.

On to `COc1ccc2cc(-c3nn(C(C)c4oc5ccccc5c(=O)c4-c4cccc(F)c4)c4ncnc(N)c34)ccc2c1` (stereo unspecified), for which the melting point lay in the range of 285 to 287 °C.
The figure for `N#Cc1ccc2ccn(C3CCN(CCc4ccc(F)cc4)CC3)c2c1` is 131 to 132 °C.
The figure for `CC1(C)CCC(C)(C)c2cc3c(cc21)OCC3(C)c1cc(C=C(Br)Br)cs1` (stereo unspecified) is 124 °C.
The compound `CCOC(=O)c1cc(O)c2cc3c(O)cc(C(=O)OCC)nc3c(N(CC)CC)c2n1` gave a melting point of 267 to 268 °C.
As for `COc1ccc(C(=O)NC(=O)Nc2cc3c(cc2F)/C(=C/c2[nH]c(C)c(CCC(=O)O)c2C)C(=O)N3)c(F)c1`, the figure is over 300 °C; as for `CCOC(=O)c1ccccc1-n1c(C)nc2cnccc21`, 125 to 127 °C; as for `COC(=O)C1(C(C)C)Oc2c(OC)cccc2C1=O` (stereo unspecified), 87 to 88 °C.
The figure for `O=C1c2ccccc2SC(O)(c2ccccc2)C2CCCN12` (stereo unspecified) is 137 to 141 °C.
The figure for `Nc1ccc(C(O)c2ccccn2)cc1` (stereo unspecified) is 139 to 140 °C; for `O=C(Nc1c(C(O)(C(F)(F)F)C(F)(F)F)ccc2ccccc12)c1cc(Cl)cc(Cl)c1` it is 205 to 207 °C.
Consider `CCC(C)Nc1cc(N2CCc3cc(OC)cc(Cl)c32)nc(C)n1` (stereo unspecified), for which the melting point lay within 102 to 105 °C.
The figure for `Cc1cc([N+](=O)[O-])cc2c1S(=O)C=N2` (stereo unspecified) is over 250 °C; for `Cc1occc1C(=O)Nc1ccc(C(=O)N2Cc3ccccc3Cc3ccccc32)cc1` it is 202 to 204 °C.
The figure for `CN1CC=C(c2cccc3[nH]ccc23)CC1` is 164 °C.
As for `FC(F)(F)c1ccc(Nc2nnc(Cc3ccncc3)c3ccccc23)cc1`, the figure is 205 to 206 °C; as for `CC1Cc2c(c3ccccc3n2C(=O)c2ccccc2)C(C)C1C(=O)O` (stereo unspecified), 142 to 145 °C; as for `CCOC(=O)C(C)(C)Sc1ccc2c(-c3ccccc3F)noc2c1Cl`, 83.4 °C.
As for `Cc1ccn2c(-c3ccnc(-c4ccc(N5CCOCC5)cc4)c3)c(-c3cccc(C)n3)nc2c1`, the melting point was found to be 208 °C.
Regarding `Cc1cccc(-c2n[nH]cc2-c2ccc(F)c(-c3ccc(C(C)O)cn3)c2)n1` (stereo unspecified), the melting point was in the range of 149 to 151 °C.
The figure for `Cc1c(Cl)c(C(C)(C)C)c(Cl)c(C)c1S(=O)(=O)Cl` is 148 °C.
The figure for `COc1ccc2c(c1)c(COC(C)(C)C(=O)O)nn2Cc1ccccc1` is 128 to 130 °C; for `CCOC(=O)c1cnc2nc(N3CCN(C)CC3)ncc2c1Cl` it is 173 to 175 °C; for `Oc1ccc(Nc2nc(Cl)cc3ccccc23)cc1` it is 170 °C.
The figure for `Cc1cc(=O)n(C)c2cc(OCCCN3CCC(NC(=O)c4ccccc4)CC3)ccc12` is 193 to 195 °C; for `Cc1nn2ccc3c(c2c1CO)CCO3` it is 173 to 174 °C; for `CCn1c(=O)c2c(nc(/C=C/c3ccc(O)cc3)n2C)n(CC)c1=O` it is over 270 °C.
On to `CSc1nc2c(NCc3ccccc3)nc(NCCCO)nc2n1C(C)C`, for which the melting point lay within 64 to 67 °C.
As to `COc1cc(OC)c(C(=O)CCCCCl)cc1NS(=O)(=O)c1ccc(C(F)(F)F)cc1`, the melting point lay within 150 to 153 °C.
The figure for `Cc1nnc2n1-c1sc(C(C)OC(=O)C(C)(C)C)cc1C(c1ccccc1Cl)=NC2` (stereo unspecified) is 148 to 151 °C.
As for `CCOc1cc(OCC)c(C=NNC(=N)NCc2ccccc2)c(OCC)c1`, the figure is 140 to 141 °C; as for `CN(C)CC(C)(C)Oc1ccc(Nc2cc(-c3cccc(-n4ncc5cc(C(C)(C)C)cc(F)c5c4=O)c3CO)nn(C)c2=O)nn1`, 140 to 145 °C; as for `CC(C)CNc1nc(-c2ccccc2)c(Cl)n2c(-c3ccc(C(=O)NC4CC4)cc3)cnc12`, 180 °C.
As for `CC(=O)Cc1cc2c(cc1C(=O)c1ccc([N+](=O)[O-])c(C)c1)OCO2`, the figure is 146 to 148 °C; as for `COC(=O)c1cnc(Nc2cc(N3CCN(CCO)CC3)nc(C)n2)s1`, 242 °C.
Compound `N#Cc1cc(C=O)cc(O)c1O` gave a melting point of 210 to 215 °C.
The figure for `O=C1C(=O)c2ccccc2C2=C1SCC1(CCN(Cc3ccccc3)CC1)O2` is 170 to 172 °C; for `NC(=O)Cc1cccc(C(O)c2ccccc2)c1N` (stereo unspecified) it is 198 to 199 °C; for `O=C1CCCC(c2ccc(Cl)cc2)O1` (stereo unspecified) it is 110 to 111 °C.
Consider `Cc1cc2c(cc1C1=NNC(=O)CC1)OCC(=O)N2C`, for which the melting point is 211 to 213 °C.
Turning to `CCOC(=O)NCC(O)c1ccc(OC)c(OC)c1` (stereo unspecified), the melting point was 90 to 92 °C.
The figure for `NCCSC(c1ccccc1)(c1ccccc1)c1ccccc1` is 142 to 143 °C; for `Cc1c(CC(=O)O)c2cc(OCc3ccc4ccccc4n3)ccc2n1Cc1ccc(C(=O)O)cc1` it is 232 to 234 °C.
The figure for `O=C(O)c1ccc(-c2nc3ccccc3s2)cc1` is 294 to 296 °C; for `O=c1c2c(Cl)cc(Cl)cc2n(Cc2ccccc2)c(=O)n1Cc1ccc(Cl)cc1` it is 161 to 165 °C; for `CCCCCCCCCCCCCCCCCCOC(=O)CCC1CCCCC1(c1ccc(O)c(C(C)(C)C)c1)c1ccc(O)c(C(C)(C)C)c1` (stereo unspecified) it is 155 °C.
As for `N#Cc1c(N2CCN(C(=O)c3c[nH]cn3)CC2)c2ccccc2n(Cc2ccc(F)cc2)c1=O`, the figure is 176 to 183 °C.
The compound `Cc1cc(CO)nc(N2CCN(c3ccnc([C@@H](C)O)n3)CC2)n1` returned a melting point of 139 to 140 °C.
As for `OCc1cccc(-c2ccc3nc(-c4coc5ccccc45)cn3c2)c1`, the figure is 150 to 152 °C; as for `CSc1ncc(-c2ccccc2)c(=O)[nH]1`, 252 to 254 °C.
Regarding `CC(=O)Oc1cc2c(nc1C)C(=O)OC2=O`, the melting point fell in the range of 123 to 125 °C.
The figure for `CC(C)(C)OC(=O)/C(=C/c1ccccc1Cl)C(=O)c1ccccc1O` is 75 to 78 °C; for `CCC(CC)c1ccc(Cl)c2nc3n(c12)CCCCN3c1ccc(N(C)C)cc1C` it is 174 to 175 °C; for `Nc1cc(C(=O)O)ccc1OCCCCCCc1cccc(O)c1O` it is 172 to 174 °C.
In the case of `CC12CCC(=O)C=C1C(=O)CC1C2CCC2(C)C(c3cccnc3)=CCC12` (stereo unspecified), the melting point was in the range of 210 to 212 °C.
The compound `CC(C)c1ccc(-n2nc(Cl)cc2-c2ccc(S(C)(=O)=O)cc2)cc1` gave a melting point of 146 to 148 °C.
As for `COc1cc(OC)cc(-c2ncoc2-c2ccc(OC)c(N)c2)c1`, the figure is 163 to 165 °C.
Consider `Cn1cc(CO)c(=O)c2ccc(Cl)cc21`, for which the melting point lay in the range of 204 to 206 °C.
As for `NC(=O)Cc1nc(-c2ccccc2)c(-c2ccccc2)o1`, the figure is 129 to 133 °C; as for `Cn1nc(C(F)(F)F)cc1Oc1cc(C#N)cc(OCc2ccc(F)cc2F)n1`, 109 °C; as for `c1ccc(Cn2cc(-c3ncc(-c4ccc5cc(OCc6nnn[nH]6)ccc5c4)o3)c3ccccc32)cc1`, 244 to 246 °C.
The figure for `CCCCCCCCCCCCCCCCCCOc1cc(OC(=O)C(c2ccccc2)c2ccccc2)cc(C(=O)OCc2ccccc2)c1` is 47 to 49 °C; for `NC(=O)c1ncn2c(=O)n(Cc3ccccc3)nnc12` it is 187 to 188 °C.
As for `COC(=O)c1cc(-c2cccc(Cl)c2Cl)c(C(=O)OC)[nH]1`, the figure is 143 to 145 °C; as for `Cc1cccc(NS(=O)(=O)c2ccc(NC3=C(Cl)C(=O)c4ccccc4C3=O)cc2)c1`, 234 to 237 °C.
The compound `COc1cccc2c1Cc1ccccc1C2(CCO)CCO` had a melting point of 164 to 167 °C.
The compound `CCOC(=O)CC(=O)CNC(=O)CCc1cc(-c2ccc(C(F)(F)F)cc2)oc1C` displayed a melting point of 131 to 133 °C.
The figure for `CN1C(=O)CC(c2ccccc2)C1C(O)Cc1cccc(Cl)c1` (stereo unspecified) is 50 to 52 °C; for `Cc1cccc(NC(=O)NCC(=O)N(CC(=O)N(c2ccccc2)C(C)C)c2ccccc2)c1` it is 170 °C; for `Cc1cc(C(=O)NC2CC2)ccc1N1CCN(C(=O)OC(C)(C)C)CC1` it is 111 to 115 °C.
`CC(C)NC1=NS(=O)(=O)c2sc(Br)c(Br)c2N1`: the melting point was 250 to 251 °C.
The figure for `CON(C)C(=O)c1cc(C(F)(F)F)nc2c(C(F)(F)F)cccc12` is 93 to 95 °C; for `O=C(O)c1ccc(-c2cnc3c(c2)N(Cc2c(Cl)cccc2Cl)C(=O)CN3)cc1` it is over 200 °C; for `CCCn1nnn(-c2cc(OC(C)=O)c(Cl)cc2Cl)c1=O` it is 91 to 92 °C.
The figure for `COc1ccc2ccc(N3C(=O)c4ccccc4C3OCC(=O)NCCC(C)C)nc2n1` (stereo unspecified) is 136 °C.
The figure for `CCOC(=O)c1cn(C)c2ccc(C(=O)c3c(C)c(OC)c4ccccn34)cc2c1=O` is 258 °C.
Compound `Cc1ccnc2c1N=C(N)c1cccnc1N2C1CC1` came in with a melting point of 242 to 244 °C.
The figure for `Cc1nc(N2CCN(Cc3cccnc3)C2=O)sc1C(=O)NCc1ccccc1` is 110 to 113 °C; for `COCCC(=O)Nc1ccc(Cl)c(C2(C)C(=O)N(Cc3ccc(OC)cc3OC)c3ccc(Cl)cc32)c1` (stereo unspecified) it is 168 °C.
The figure for `CCc1oc(C2CCCCC2)nc1CC(=O)O` is 101 to 102 °C.
`CC1(C)CS(=O)(=O)c2ccccc2C1c1cncnc1S(C)(=O)=O` (stereo unspecified) showed a melting point of 202 to 208 °C.
As for `Cc1cc2c(cc1O)C(C1(C3CCCc4ccccc43)CC1)N(C)CC2` (stereo unspecified), the figure is 160 to 163 °C; as for `CC(C)(C)c1ccc(-c2cc(N3CCOCC3)cc(=O)o2)cc1`, 230 to 232 °C.
As for `O=c1[nH]c2ccc(C(F)(F)F)cc2c(-c2cc(Cl)ccc2O)c1CO`, the figure is over 250 °C.
The figure for `CN1C(C(=O)Nc2ccccn2)=C(O)c2sc3ccccc3c2S1(=O)=O` is 222 to 224 °C; for `CNC(=NC#N)NCc1c(C)cc(C)c(CNC(=NC#N)NC)c1C` it is 270 to 272 °C.
For the compound `Fc1ccc(-n2nccc2NC2=NCCN2)cc1`, the melting point is 195 to 197 °C.
